Key:
[1] = tested on: hepatocytes; assay: Hydrogen peroxide cell-based assay (ROS induction), hepatocytes; parameters: species or system Human; conditions: 30 μM; hydrogen peroxide level relative to DMSO-treated cells (100%)
Description: Cells were incubated for 2 h with either compounds (30 μM) or DMSO in a 96-well plate. After the treatment, 80 μl of cell culture medium was collected and the level of hydrogen peroxide was determined using a Hydrogen Peroxide Cell-Based Assay kit (Cayman).
Cells were incubated with the compounds for 4 h and the level of ROS induction was measured by a hydrogen peroxide cell-based assay kit. Compounds were assayed at a fixed concentration of 30 μM and the measured level of hydrogen peroxide was expressed as percentage in relation to DMSO-treated cells (100%). […] This distinction was more evident for compounds with the highest selective cytotoxicity index. […] We conclude that the selective induction of ROS in cancer cells is required but not sufficient factor for the selective anti-tumor activity.

[2] = biological target: T1, human GSR enzyme (recombinant GSR) (Homo sapiens, UniProt P00390); assay: Glutathione reductase (GSR) activity assay; format: biochemical; conditions: for remaining activity at 30 µM: 2 h at 25°C, read-out: GSR, enzyme residual activity as compared to DMSO-treated sample; for inhibition at 30 µM: read-out: GSR-inhibiting activity
T1 construct: made in house; host or cells: E. coli BL21(DE3)
T1 sequence (P00390 44-522): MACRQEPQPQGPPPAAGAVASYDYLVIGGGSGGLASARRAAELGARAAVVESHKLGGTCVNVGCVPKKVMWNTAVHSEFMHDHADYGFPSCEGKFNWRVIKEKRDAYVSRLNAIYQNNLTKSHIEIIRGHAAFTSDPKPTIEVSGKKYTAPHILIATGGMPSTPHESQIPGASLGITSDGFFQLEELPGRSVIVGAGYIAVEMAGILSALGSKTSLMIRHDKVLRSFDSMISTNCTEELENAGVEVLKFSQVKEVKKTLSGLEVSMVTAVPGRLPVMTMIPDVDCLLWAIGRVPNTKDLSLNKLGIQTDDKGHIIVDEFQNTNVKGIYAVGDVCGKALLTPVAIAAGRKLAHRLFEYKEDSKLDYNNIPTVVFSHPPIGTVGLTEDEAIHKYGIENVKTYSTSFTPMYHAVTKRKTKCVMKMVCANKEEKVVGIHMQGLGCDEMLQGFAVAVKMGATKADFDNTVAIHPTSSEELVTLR
Description: Recombinant GSR (0.5 u/well) in a 96-well plate was incubated in the GSR assay buffer (50 mM potassium phosphate buffer, pH 7.5 supplemented with 1 mM EDTA), 100 μl with and without compound (30 μM) for 2 h at 25°C. At the end of incubation, 100 μl of solution containing NADPH (0.087 mM), oxidized glutathione (GSSG) (0.95 mM) and 1 μl of the reagent that detects ratio of GSSG to reduced glutathione (GSH) (Abcam) were added and the mixture was incubated for an additional 1 h at 25°C. GSR activity was measured by using 490-nm excitation and monitoring fluorescence at 520 nm with a fluorescence plate reader. One unit of GSR activity was defined as the amount of enzyme required to produce 1 μM of GSH in a total reaction volume of 200 μl in 1 minute in the GSR assay buffer containing NADPH (0.087 mM), GSSG (0.95 mM) and 1 μl of GSH/GSSG ratio detection reagent (Abcam).
Next, we evaluated the inhibitory activity of the selected compounds against human GSR enzyme using recombinant GSR and Abcam GSH/GSSG ratio detection reagent (Table 1). Briefly, GSR activity was measured by following oxidized glutathione (GSSG) reduction in the presence of NADPH and expressed as percentage of residual activity with respect to DMSO-treated enzyme. The residual activity of GSR for both the non-toxic and toxic compounds was quite heterogeneous, ranging from 100% (compounds 38) to 3% (compound 32). […] We thus conclude that GSR inhibitory activity alone cannot be used to predict the selective cytotoxicity index.

[3] = tested on: human primary hepatocytes; conditions: for EC50: read-out: EC50, μM Hepatocytes ATO, in the presence of ATO (5 μM), SD does not exceed 10%
Description: We selected hepatocytes as normal cells because hepatocytes are mediate toxicity to multiple drugs and are used as a standard to assess toxicity of drugs in vitro [28]. […] For comparison with the standard of care, doxorubicin was also included in this analysis.

[4] = tested on: PANC1 pancreatic carcinoma cells; assay: Combined treatment with pancreatic cancer drugs, PANC1 cells; format: cell-based, Human; conditions: NSC130362 10 μM 2 h, then drugs 10 μM 24 h
Description: (§1) Fig 2 Combined treatment of NSC130362 with pancreatic cancer drugs against PANC1 and YAPC cells. Cells were pre-incubated with NSC130362 (10 μM) for 2 h followed by addition of drugs (10 μM) and incubation for an additional 24 h. […] The first bar is NSC130362 alone. *, P<0.05.

[5] = tested on: YAPC pancreatic carcinoma cells; assay: Combined treatment with pancreatic cancer drugs, YAPC cells; format: cell-based, Human; conditions: NSC130362 10 μM 2 h, then drugs 10 μM 24 h
Description: as §1

[6] = tested on: chemotherapy resistant prostate carcinoma cells; assay: Combined treatment with ATO, docetaxel, MDV3100, prostate cancer cells; format: cell-based; conditions: NSC130362 10 μM 2 h
Description: Fig 3 Combined treatment of NSC130362 with ATO, docetaxel, and MDV3100 against prostate cancer cells. Cells were pre-incubated with NSC130362 (10 μM) for 2 h followed by addition of drugs (10 μM) and incubation for an additional 24 h. […] The first bar in the treatment of each cell line is NSC130362 alone. *, P<0.05.

[7] = in words; cited from earlier work
[8] = in words; cited from earlier work; remark: listed apart in the source

Compound | ROS increase, % Hepatocytes [1] [%] | remaining activity at 30 µM [2] [%] | other results
CCCCCCCNC1=C(Cl)C(=O)c2ccccc2C1=O [compound 8] | 115 | 93 | inhibition at 30 µM [2]: 7%
COCCNC1=C(Cl)C(=O)c2ccccc2C1=O [compound 21] | 154 | 65 | increase in toxicity to hepatocytes ([3]; versus compound 3): approximately 3 fold
O=C1C(Cl)=C(Nc2ccccc2)C(=O)c2ccccc21 [compound 39] | 174 | 92 | 
O=C1C(Cl)=C(Nc2nccs2)C(=O)c2ccccc21 [compound 38] | 100 | 90 | 
O=C1C=C(SCCO)C(=O)c2ccccc21 [compound 60] | 386 | 38 | EC50 [3]: 1.7 µM
COC1=C(N(C)C)C(=O)c2ccccc2C1=O [compound 53] | 117 | 61 | 
CCCCC(=O)NC1=C(Cl)C(=O)c2ccccc2C1=O [compound 32] | 249 | 1 | inhibition at 30 µM [2]: 99%
CC(C)(C)NC1=C(Cl)C(=O)c2ccccc2C1=O [compound 13] | 123 | 45 | 
CCNC1=CC(=O)c2ncccc2C1=O [compound 66] | 173 | 59 | EC50 [3]: > 90 µM
O=C1C(Cl)=C(NCCO)C(=O)c2ccccc21 [compound 17] | 132 | 65 | effect on apoptosis induction by pancreatic cancer drugs, PANC1 [4]: significantly increased the ability of all tested pancreatic cancer drugs; effect on apoptosis induction by pancreatic cancer drugs, YAPC [5]: significantly increased the ability of all tested pancreatic cancer drugs; potentiation of docetaxel-induced cytotoxicity ([6]; then docetaxel 10 μM 24 h): potentiated docetaxel-induced cytotoxicity, but to a lesser extent; potentiation of ATO or MDV3100 effect on cell viability ([6]; then drugs 10 μM 24 h): efficiently potentiated the effect on cell viability of either ATO or MDV3100; half-life in the mouse bloodstream [7]: short half-life; anti-tumor activity in vivo [8]: demonstrated anti-tumor activity in vivo
Cc1ccccc1NC1=C(Cl)C(=O)c2ccccc2C1=O [compound 40] | 122 | 72 | 
CCNC1=C(Cl)C(=O)c2ccccc2C1=O [compound 3] | 115 | 59 | 
CCCCOCCCNC1=C(Cl)C(=O)c2ccccc2C1=O [compound 26] | 191 | 66 | 
NC1=C(Cl)C(=O)c2ccccc2C1=O [compound 1, 2-chloro-3-amino-1,4-NQ] | 156 | 33 | inhibition at 30 µM [2]: 67%
O=C1C(Cl)=C(NCCc2ccccc2)C(=O)c2ccccc21 [compound 36] | 178 | 42 | 
COC1=C(N2CC2)C(=O)c2ccccc2C1=O [compound 54] |  | 54 | 
O=C1C(Nc2ccccc2)=CC(=O)c2ncccc21 [compound 67, reference compound] | 179 | 53 | EC50 [3]: 19.4 µM; decrease in toxicity to hepatocytes ([3]; versus compound 64): 3 fold
CC1=C(N2CC2)C(=O)c2ccccc2C1=O [compound 55] |  | 83 | inhibition at 30 µM [2]: 17%; reduction in toxicity to hepatocytes ([3]; versus compound 15): more than 10 fold
CCCC(=O)NC1=C(Cl)C(=O)c2ccccc2C1=O [compound 31] | 228 | 28 | 
CC1CN1C1=C(Cl)C(=O)c2ccccc2C1=O (stereo not drawn) [compound 16] |  | 75 | toxicity against normal cells ([3]; hepatocytes, in words): completely non-toxic against normal cells
